The target of test [1] is T1, Human Tryptophan 2,3-dioxygenase (TDO) (Homo sapiens, UniProt P48775).
T1 construct: His tag (N); made in house; host or cells: E. coli
Put plainly: Human TDO enzymatic assay (kynurenine level). The format is biochemical. As to conditions: 1 nM TDO, 350 μM L-Trp; geometric mean; read-out: TDO GMean: IC50 (μM) (Biochemical Assay). The method, then:
(§1) Human Indoleamine 2,3-dioxygenase (IDO) and Tryptophan 2,3-dioxygenase (TDO) enzymatic assay
(§2) Human IDO or TDO with N-terminal His tag is purified in E. coli. The IDO enzymatic assay is performed using 6 nM IDO and 10 μM L-Trp in the presence of 10 mM ascorbic acid, 5 μM methylene blue, 100 nM catalase and 0.01% Tween 20 in 50 mM sodium phosphate buffer (pH 6.5). 19 μL of above reaction mixture is added to wells of 384 well reaction plate containing […] of various concentrations of test compound or DMSO vehicle and incubated for 20 minutes at room temperature. The TDO enzymatic reaction assay is performed using 1 nM TDO and 350 μM L-Trp in the presence of 10 mM ascorbic acid, 0.4 μM methylene blue, 100 nM catalase and 0.01% Tween 20 in 50 mM sodium phosphate buffer (pH 6.5). 19 μL of above reaction mixture is added to wells of 384 well reaction plate containing 1 μL of various concentrations of test compound or DMSO vehicle and incubated for 70 minutes at room temperature. 16 wells containing all the components of reaction mixture and 5% DMSO serve as high control. 16 well containing all the components except enzyme of reaction mixture and 5% DMSO serves as low control. Both IDO and TDO enzymatic reactions are stopped by addition of […] of 30% TCA and incubated 30 minutes at 50° C. to hydrolyze N-formylkynurenine produced by IDO or TDO to kynurenine. Upon measuring the kynurenine level, the percentage inhibition is calculated at individual concentrations relative to high and low controls. The data is analyzed by using nonlinear regression to generate IC50 values.

Test [2] concerns the target T2, Human Indoleamine 2,3-dioxygenase (IDO) (Homo sapiens, UniProt P14902).
T2 construct: His tag (N); made in house; host or cells: E. coli
Briefly: Human IDO enzymatic assay (kynurenine level). The format is biochemical. To be noted: 6 nM IDO, 10 μM L-Trp; geometric mean; read-out: IDO1 GMean: IC50 (μM) (Biochemical Assay). The method, then:
as §1, §2

T1 sequence (P48775 whole entry): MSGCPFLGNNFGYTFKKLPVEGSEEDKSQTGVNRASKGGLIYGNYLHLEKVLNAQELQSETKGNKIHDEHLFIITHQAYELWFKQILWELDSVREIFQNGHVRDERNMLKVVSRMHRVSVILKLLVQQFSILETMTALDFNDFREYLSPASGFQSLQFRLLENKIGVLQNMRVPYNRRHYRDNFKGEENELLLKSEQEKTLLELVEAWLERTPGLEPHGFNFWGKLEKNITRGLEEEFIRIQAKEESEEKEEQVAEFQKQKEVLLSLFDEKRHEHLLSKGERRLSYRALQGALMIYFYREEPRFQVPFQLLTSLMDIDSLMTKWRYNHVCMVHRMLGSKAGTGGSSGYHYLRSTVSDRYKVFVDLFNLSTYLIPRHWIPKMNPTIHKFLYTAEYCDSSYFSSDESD
T2 sequence (P14902 whole entry): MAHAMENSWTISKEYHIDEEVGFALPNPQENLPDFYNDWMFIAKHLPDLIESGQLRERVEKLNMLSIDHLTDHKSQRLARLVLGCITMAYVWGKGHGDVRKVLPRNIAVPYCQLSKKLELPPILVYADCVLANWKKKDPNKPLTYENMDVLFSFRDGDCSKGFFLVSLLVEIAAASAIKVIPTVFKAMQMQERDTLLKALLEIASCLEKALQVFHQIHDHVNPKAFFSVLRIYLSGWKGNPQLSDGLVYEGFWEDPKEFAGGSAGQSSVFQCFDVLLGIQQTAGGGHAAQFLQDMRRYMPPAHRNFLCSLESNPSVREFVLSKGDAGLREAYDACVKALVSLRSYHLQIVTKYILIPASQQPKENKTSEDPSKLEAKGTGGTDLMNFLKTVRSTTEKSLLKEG

For orientation: IC50 means the concentration that inhibits the measured activity by half. As for `COc1ccc(CNC(=O)N2CCC(C(C)(C)[C@H](O)c3cc(Cl)cc4cn[nH]c34)CC2)cn1` [Compound P-0585, (S)-4-(1-(5-chloro-1H-indazol-7-yl)-1-hydroxy-2-methylpropan-2-yl)-N-((6-methoxypyridin-3-yl)methyl)piperidine-1-carboxamide], the IC50 in test [1] and in test [2] was 0.0001 to 10 µM throughout.
On to `CN(C)c1ccc(CNC(=O)N2CCC(C(C)(C)[C@H](O)c3cc(Cl)cc4cn[nH]c34)CC2)cn1` [Compound P-0586, (S)-4-(1-(5-chloro-1H-indazol-7-yl)-1-hydroxy-2-methylpropan-2-yl)-N-((6-(dimethylamino)pyridin-3-yl)methyl)piperidine-1-carboxamide], for which the IC50 in test [1] and in test [2] was 0.0001 to 10 µM each time.
Regarding `CC(C)(C1CCN(C(=O)NCC#N)CC1)[C@H](O)c1cc(Cl)cc2cn[nH]c12` [Compound P-0587, (S)-4-(1-(5-chloro-1H-indazol-7-yl)-1-hydroxy-2-methylpropan-2-yl)-N-(cyanomethyl) piperidine-1-carboxamide], the IC50 in test [1] and in test [2] was 0.0001 to 10 µM throughout.
With `CC(C)(C1CCN(C(=O)NC2CCC(F)(F)CC2)CC1)[C@H](O)c1cc(Cl)cc2cn[nH]c12` [Compound P-0588, (S)-4-(1-(5-chloro-1H-indazol-7-yl)-1-hydroxy-2-methylpropan-2-yl)-N-(4,4-difluorocyclohexyl) piperidine-1-carboxamide], the IC50 in test [1] and in test [2] was 0.0001 to 10 µM in each case.
Regarding `CC(C)(C1CCN(C(=O)N[C@H]2CCOC2)CC1)[C@H](O)c1cc(Cl)cc2cn[nH]c12` [Compound P-0589, 4-((S)-1-(5-chloro-1H-indazol-7-yl)-1-hydroxy-2-methylpropan-2-yl)-N-((S)-tetrahydrofuran-3-yl)piperidine-1-carboxamide], the IC50 in test [1] and in test [2] was 0.0001 to 10 µM in each case.
In the case of `CC(C)(C1CCN(C(=O)NCc2ccc(C#N)nc2)CC1)[C@H](O)c1cc(Cl)cc2cn[nH]c12` [Compound P-0590, (S)-4-(1-(5-chloro-1H-indazol-7-yl)-1-hydroxy-2-methylpropan-2-yl)-N-((6-cyanopyridin-3-yl)methyl)piperidine-1-carboxamide], the concentration for half-maximal inhibition (IC50) in test [1] and in test [2] was 0.0001 to 10 µM throughout.
As for `CC(C)(C1CCN(C(=O)N[C@@H]2CC[C@@H](O)C2)CC1)[C@H](O)c1cc(Cl)cc2cn[nH]c12` [Compound P-0591, 4-((S)-1-(5-chloro-1H-indazol-7-yl)-1-hydroxy-2-methylpropan-2-yl)-N-((1R,3R)-3-hydroxycyclopentyl) piperidine-1-carboxamide], the IC50 in test [1] and in test [2] was 0.0001 to 10 µM each time.
Regarding `CC(C)(C1CCN(C(=O)NC2CC(F)(F)C2)CC1)[C@H](O)c1cc(Cl)cc2cn[nH]c12` [Compound P-0592, (S)-4-(1-(5-chloro-1H-indazol-7-yl)-1-hydroxy-2-methylpropan-2-yl)-N-(3,3-difluorocyclobutyl) piperidine-1-carboxamide], the 50% inhibitory concentration (IC50) in test [1] and in test [2] was 0.0001 to 10 µM throughout.
With `CC(C)(C1CCN(C(=O)N[C@@H]2CCOC2)CC1)[C@H](O)c1cc(Cl)cc2cn[nH]c12` [Compound P-0593, 4-((S)-1-(5-chloro-1H-indazol-7-yl)-1-hydroxy-2-methylpropan-2-yl)-N-((R)-tetrahydrofuran-3-yl)piperidine-1-carboxamide], the IC50 in test [1] and in test [2] was 0.0001 to 10 µM throughout.
On to `CC(C)NC(=O)N1CCC(C(C)(C)[C@H](O)c2cc(Cl)cc3cn[nH]c23)CC1` [Compound P-0594, (S)-4-(1-(5-chloro-1H-indazol-7-yl)-1-hydroxy-2-methylpropan-2-yl)-N-isopropylpiperidine-1-carboxamide], for which the half-inhibitory concentration (IC50) in test [1] and in test [2] was 0.0001 to 10 µM in each case.
In the case of `CC(C)(C1CCN(C(=O)NC2COC2)CC1)[C@H](O)c1cc(Cl)cc2cn[nH]c12` [Compound P-0595, (S)-4-(1-(5-chloro-1H-indazol-7-yl)-1-hydroxy-2-methylpropan-2-yl)-N-(oxetan-3-yl)piperidine-1-carboxamide], the IC50 in test [1] and in test [2] was 0.0001 to 10 µM each time.
`CC(C)(C1CCN(C(=O)NCCCF)CC1)[C@H](O)c1cc(Cl)cc2cn[nH]c12` [Compound P-0596, (S)-4-(1-(5-chloro-1H-indazol-7-yl)-1-hydroxy-2-methylpropan-2-yl)-N-(3-fluoropropyl) piperidine-1-carboxamide]: the 50% inhibitory concentration (IC50) in test [1] and in test [2] was 0.0001 to 10 µM each time.
`CC(C)(C1CCN(C(=O)NCCCC#N)CC1)[C@H](O)c1cc(Cl)cc2cn[nH]c12` [Compound P-0597, (S)-4-(1-(5-chloro-1H-indazol-7-yl)-1-hydroxy-2-methylpropan-2-yl)-N-(3-cyanopropyl) piperidine-1-carboxamide]: the IC50 in test [1] and in test [2] was 0.0001 to 10 µM in each case.
On to `CONC(=O)N1CCC(C(C)(C)[C@H](O)c2cc(Cl)cc3cn[nH]c23)CC1` [Compound P-0598, (S)-4-(1-(5-chloro-1H-indazol-7-yl)-1-hydroxy-2-methylpropan-2-yl)-N-methoxypiperidine-1-carboxamide], for which the IC50 in test [1] and in test [2] was 0.0001 to 10 µM in each case.
With `CC1(CNC(=O)N2CCC(C(C)(C)[C@H](O)c3cc(Cl)cc4cn[nH]c34)CC2)CC1` [Compound P-0599, (S)-4-(1-(5-chloro-1H-indazol-7-yl)-1-hydroxy-2-methylpropan-2-yl)-N-((1-methylcyclopropyl)methyl)piperidine-1-carboxamide], the IC50 in test [1] and in test [2] was 0.0001 to 10 µM each time.
`CC(C)(C1CCN(C(=O)N[C@H]2C[C@H](O)C2)CC1)[C@H](O)c1cc(Cl)cc2cn[nH]c12` [Compound P-0600, 4-((S)-1-(5-chloro-1H-indazol-7-yl)-1-hydroxy-2-methylpropan-2-yl)-N-((1r,3S)-3-hydroxycyclobutyl) piperidine-1-carboxamide]: the IC50 in test [1] and in test [2] was 0.0001 to 10 µM in each case.
As to `CC(C)(C1CCN(C(=O)NCc2ccc(F)cn2)CC1)[C@H](O)c1cc(Cl)cc2cn[nH]c12` [Compound P-0601, (S)-4-(1-(5-chloro-1H-indazol-7-yl)-1-hydroxy-2-methylpropan-2-yl)-N-((5-fluoropyridin-2-yl)methyl) piperidine 1-carboxamide], the IC50 in test [1] and in test [2] was 0.0001 to 10 µM in each case.
Regarding `CC(C)(C1CCN(C(=O)NCc2ccc(F)cc2)CC1)[C@H](O)c1cc(Cl)cc2cn[nH]c12` [Compound P-0602, (S)-4-(1-(5-chloro-1H-indazol-7-yl)-1-hydroxy-2-methylpropan-2-yl)-N-(4-fluorobenzyl) piperidine-1-carboxamide], the IC50 in test [1] and in test [2] was 0.0001 to 10 µM throughout.
With `CC(C)(C1CCN(C(=O)Nc2ccccc2)CC1)C(O)c1cc(Cl)cc2[nH]ncc12` (stereo not drawn) [Compound P-0603, 4-(1-(6-chloro-1H-indazol-4-yl)-1-hydroxy-2-methylpropan-2-yl)-N-phenylpiperidine-1-carboxamide], the IC50 in test [1] and in test [2] was 0.0001 to 10 µM throughout.
For the compound `CC(C)(C1CCN(C(=O)Nc2ccc(Cl)nc2)CC1)C(O)c1cc(Cl)cc2cn[nH]c12` (stereo not drawn) [Compound P-0604, 4-(1-(5-chloro-1H-indazol-7-yl)-1-hydroxy-2-methylpropan-2-yl)-N-(6-chloropyridin-3-yl)piperidine-1-carboxamide], the half-inhibitory concentration (IC50) in test [1] and in test [2] was 0.0001 to 10 µM each time.
With `COc1ccc(NC(=O)N2CCC(C(C)(C)C(O)c3cc(Cl)cc4cn[nH]c34)CC2)cn1` (stereo not drawn) [Compound P-0605, 4-(1-(5-chloro-1H-indazol-7-yl)-1-hydroxy-2-methylpropan-2-yl)-N-(6-methoxypyridin-3-yl)piperidine-1-carboxamide], the IC50 in test [1] and in test [2] was 0.0001 to 10 µM throughout.
Take `CC(C)(C1CCN(C(N)=O)CC1)C(O)c1cc(Cl)cc2[nH]ncc12` (stereo not drawn) [Compound P-0606, 4-(1-(6-chloro-1H-indazol-4-yl)-1-hydroxy-2-methylpropan-2-yl)piperidine-1-carboxamide]: the IC50 in test [1] and in test [2] was 0.0001 to 10 µM throughout.
Take `CC(C)(C)OC(=O)N1CCC(C(C)(C)C(O)c2cc(Cl)cc3[nH]ncc23)CC1` (stereo not drawn) [Compound P-0607, tert-butyl 4-(1-(6-chloro-1H-indazol-4-yl)-1-hydroxy-2-methylpropan-2-yl)piperidine-1-carboxylate]: the 50% inhibitory concentration (IC50) in test [1] and in test [2] was 0.0001 to 10 µM in each case.
Consider `CC(C)(C1CCN(C(=O)CC2CC2)CC1)C(O)c1cc(Cl)cc2[nH]ncc12` (stereo not drawn) [Compound P-0608, 1-(4-(1-(6-chloro-1H-indazol-4-yl)-1-hydroxy-2-methylpropan-2-yl)piperidin-1-yl)-2-cyclopropylethan-1-one], for which the IC50 in test [1] and in test [2] was 0.0001 to 10 µM in each case.

(Values after patent publication US10508085B2, “Compounds and methods for IDO and TDO modulation, and indications therefor” (Plexxikon Inc., priority 2016, dated 2019).)
